What was measured:
[1] = target: T1, Human δ-opioid (DOP) (Homo sapiens, UniProt P41143); assay: Radioligand binding, human δ-opioid (DOP) membranes, FlashPlate, [3H]-Bremazocine; conditions: compound at 10 μM, [3H]-Bremazocine
T1 construct: purchased Perkin Elmer Biosignal
Method in brief: (§1)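 Cloned human receptor membranes were coated onto FlashPlate wells and incubated with radioligand and compound (added from a 0.5 mM DMSO daughter plate) for 1 hour at room temperature in the dark. Scintillation counting gave percent inhibition, with DMSO defining total and reference ligand defining non-specific binding.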

[2] = target: T2, Human κ-Opioid (KOP) (Homo sapiens, UniProt P41145); assay: Radioligand binding, human κ-opioid (KOP) membranes, filtration, [3H]-Diprenorphine; conditions: compound at 10 μM, [3H]-Diprenorphine
T2 construct: purchased Perkin Elmer Biosignal
Method in brief: (§2)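 Membranes from cloned human receptors were incubated with compound and radioligand for 1 hour at room temperature. Bound ligand was collected on 0.3% PEI-soaked filters, washed with cold 50 mM Tris-HCl pH 7.4, and counted by scintillation. Percent inhibition was computed against DMSO totals and reference-ligand nonspecific wells.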

[3] = target: T3, Human μ-opioid (MOP) (Homo sapiens, UniProt P35372); assay: Radioligand binding, human μ-opioid (MOP) membranes, FlashPlate, [3H]-Naloxone; conditions: compound at 10 μM, [3H]-Naloxone
T3 construct: purchased Perkin Elmer Biosignal
Method in brief: as §1

[4] = target: T4, Human neurokinin (NK1) (Homo sapiens, UniProt P25103); assay: Radioligand binding, human neurokinin NK1 membranes, filtration, [125I]-Substance P; conditions: compound at 10 μM, [125I]-Substance P
T4 construct: purchased Perkin Elmer Biosignal
Method in brief: as §2

[5] = target: T5, Mouse urotensin (mUR2) (Mus musculus, UniProt Q8VIH9); assay: Radioligand binding, mouse urotensin mUR2 membranes, FlashPlate, [125I]-Urotensin II; conditions: compound at 10 μM, [125I]-Urotensin II
T5 construct: purchased Perkin Elmer Biosignal
T5 sequence (Q8VIH9 1-385): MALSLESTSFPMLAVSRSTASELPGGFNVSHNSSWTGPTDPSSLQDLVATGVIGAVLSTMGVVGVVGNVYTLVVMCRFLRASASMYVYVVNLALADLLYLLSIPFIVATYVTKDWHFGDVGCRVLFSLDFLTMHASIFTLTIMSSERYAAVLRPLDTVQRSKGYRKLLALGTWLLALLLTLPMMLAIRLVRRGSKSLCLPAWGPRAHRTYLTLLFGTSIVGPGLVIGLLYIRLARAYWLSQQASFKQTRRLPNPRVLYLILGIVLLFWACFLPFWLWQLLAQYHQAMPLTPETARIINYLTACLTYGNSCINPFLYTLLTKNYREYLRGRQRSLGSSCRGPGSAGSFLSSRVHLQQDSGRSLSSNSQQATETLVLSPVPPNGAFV
Method in brief: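 Cloned mouse urotensin (mUR2) receptor membranes from Perkin Elmer Biosignal were immobilized in FlashPlate microplates using a proprietary coating. Each well got 19.5 μl buffer, then 0.5 μl of DMSO, reference ligand, or compound. Adding 5 μl of [125I]-Urotensin II, diluted to 5× final concentration in binding buffer, started binding. Plates were sealed with TopSeal-A and incubated 1 hour at room temperature in the dark. Wells were counted for 30 seconds each on a TopCount after a 60-second delay, and percentage inhibition was calculated.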

[6] = target: T6, Human Melanocortin (MC3) (Homo sapiens, UniProt P41968); assay: Radioligand binding, human melanocortin MC3 membranes, FlashPlate, [125I]-NDP-αMSH; conditions: compound at 10 μM, [125I]-NDP-αMSH
T6 construct: purchased Perkin Elmer Biosignal
Method in brief: as §1

[7] = target: T7, Human neuropeptide Y (NPY-Y1) (Homo sapiens, UniProt P25929); assay: Radioligand binding, human neuropeptide Y NPY-Y1 membranes, FlashPlate, [125I]-PYY; conditions: compound at 10 μM, [125I]-PYY
T7 construct: purchased Perkin Elmer Biosignal
T7 sequence (P25929 1-384): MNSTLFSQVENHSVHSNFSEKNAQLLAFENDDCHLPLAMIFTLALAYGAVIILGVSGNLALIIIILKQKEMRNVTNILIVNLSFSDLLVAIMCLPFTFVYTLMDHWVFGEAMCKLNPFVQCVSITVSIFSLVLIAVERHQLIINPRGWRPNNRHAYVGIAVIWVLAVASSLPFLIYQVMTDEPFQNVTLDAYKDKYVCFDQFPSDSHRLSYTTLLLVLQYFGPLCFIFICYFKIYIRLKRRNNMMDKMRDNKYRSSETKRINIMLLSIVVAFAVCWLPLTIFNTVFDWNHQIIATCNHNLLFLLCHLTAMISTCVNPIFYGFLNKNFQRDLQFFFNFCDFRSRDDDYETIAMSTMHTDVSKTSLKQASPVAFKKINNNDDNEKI
Method in brief: as §1

[8] = target: T8, Human melanocortin (MC5) (Homo sapiens, UniProt P33032); assay: Radioligand binding, human melanocortin MC5 membranes, FlashPlate, [125I]-NDP-αMSH; conditions: compound at 10 μM, [125I]-NDP-αMSH
T8 construct: purchased Perkin Elmer Biosignal
Method in brief: as §1

[9] = target: T9, Human Melanocortin (MC4) (Homo sapiens, UniProt P32245); assay: Radioligand binding, human melanocortin MC4 membranes, FlashPlate, [125I]-NDP-αMSH; conditions: compound at 10 μM, [125I]-NDP-αMSH
T9 construct: purchased Perkin Elmer Biosignal
Method in brief: as §1

[10] = target: T10, Human opioid (ORL1) (Homo sapiens, UniProt P41146); assay: Radioligand binding, human opioid ORL1 membranes, FlashPlate, [125I]-Nociceptin; conditions: compound at 10 μM, [125I]-Nociceptin
T10 construct: purchased Perkin Elmer Biosignal
Method in brief: as §1

[11] = target: T11, Human melanin-concentrating hormone (MCH1) (Homo sapiens, UniProt Q99705); assay: Radioligand binding, human melanin-concentrating hormone MCH1 membranes, FlashPlate, [125I]-S36057; conditions: compound at 10 μM; for A6 radioligand binding, percentage inhibition / A6: inhibition of radioligand binding, human melanin-concentrating hormone (MCH1): [125I]-S36057
T11 construct: purchased Perkin Elmer Biosignal
Method in brief: as §1

T1 sequence (P41143 whole entry): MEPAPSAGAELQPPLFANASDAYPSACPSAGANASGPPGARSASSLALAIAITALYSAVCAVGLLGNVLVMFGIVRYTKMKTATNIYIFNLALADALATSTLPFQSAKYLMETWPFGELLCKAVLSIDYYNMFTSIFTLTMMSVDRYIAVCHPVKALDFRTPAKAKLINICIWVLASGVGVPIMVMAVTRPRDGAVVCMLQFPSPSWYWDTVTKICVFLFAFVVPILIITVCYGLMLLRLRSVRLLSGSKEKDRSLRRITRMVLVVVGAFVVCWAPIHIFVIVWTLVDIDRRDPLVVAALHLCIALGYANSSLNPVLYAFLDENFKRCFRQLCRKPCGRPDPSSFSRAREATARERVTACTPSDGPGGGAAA
T2 sequence (P41145 whole entry): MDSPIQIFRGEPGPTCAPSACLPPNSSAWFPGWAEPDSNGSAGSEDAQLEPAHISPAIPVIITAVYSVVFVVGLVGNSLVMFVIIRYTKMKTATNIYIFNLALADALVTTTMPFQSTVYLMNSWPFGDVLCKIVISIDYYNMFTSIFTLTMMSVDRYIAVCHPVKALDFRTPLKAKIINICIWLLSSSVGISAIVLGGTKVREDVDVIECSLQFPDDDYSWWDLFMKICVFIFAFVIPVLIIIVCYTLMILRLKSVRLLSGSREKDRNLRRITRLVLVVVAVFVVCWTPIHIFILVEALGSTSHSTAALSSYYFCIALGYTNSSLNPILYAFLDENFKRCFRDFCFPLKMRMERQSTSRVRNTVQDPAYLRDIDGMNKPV
T9 sequence (P32245 whole entry): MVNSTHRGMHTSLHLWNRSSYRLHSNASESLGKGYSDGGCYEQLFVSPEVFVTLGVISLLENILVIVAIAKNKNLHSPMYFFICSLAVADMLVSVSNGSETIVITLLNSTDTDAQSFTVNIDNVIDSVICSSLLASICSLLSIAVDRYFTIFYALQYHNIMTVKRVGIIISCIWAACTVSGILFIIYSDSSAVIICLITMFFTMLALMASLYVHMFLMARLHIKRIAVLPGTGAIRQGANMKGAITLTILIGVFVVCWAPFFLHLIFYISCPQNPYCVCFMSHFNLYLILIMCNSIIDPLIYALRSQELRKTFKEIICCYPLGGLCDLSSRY
T4 sequence (P25103 whole entry): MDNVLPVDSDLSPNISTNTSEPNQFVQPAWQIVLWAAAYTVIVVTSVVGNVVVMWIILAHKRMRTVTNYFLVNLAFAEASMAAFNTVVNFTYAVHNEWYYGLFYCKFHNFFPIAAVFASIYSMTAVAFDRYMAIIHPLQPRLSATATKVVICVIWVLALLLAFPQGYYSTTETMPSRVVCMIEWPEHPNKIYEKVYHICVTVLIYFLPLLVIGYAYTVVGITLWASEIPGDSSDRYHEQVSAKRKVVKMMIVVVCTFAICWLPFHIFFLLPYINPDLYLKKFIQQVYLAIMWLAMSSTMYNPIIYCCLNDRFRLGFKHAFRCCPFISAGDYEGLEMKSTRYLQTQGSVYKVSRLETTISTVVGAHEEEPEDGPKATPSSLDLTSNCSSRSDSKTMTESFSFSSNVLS
T6 sequence (P41968 whole entry): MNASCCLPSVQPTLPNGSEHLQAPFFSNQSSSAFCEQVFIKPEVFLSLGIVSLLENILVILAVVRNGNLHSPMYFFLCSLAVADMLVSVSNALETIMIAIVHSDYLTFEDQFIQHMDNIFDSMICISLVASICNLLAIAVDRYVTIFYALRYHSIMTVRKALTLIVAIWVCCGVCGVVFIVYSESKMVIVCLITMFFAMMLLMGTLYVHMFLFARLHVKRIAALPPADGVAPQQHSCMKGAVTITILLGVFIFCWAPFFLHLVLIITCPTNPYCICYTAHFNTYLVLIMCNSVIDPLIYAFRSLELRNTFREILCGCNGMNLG
T8 sequence (P33032 whole entry): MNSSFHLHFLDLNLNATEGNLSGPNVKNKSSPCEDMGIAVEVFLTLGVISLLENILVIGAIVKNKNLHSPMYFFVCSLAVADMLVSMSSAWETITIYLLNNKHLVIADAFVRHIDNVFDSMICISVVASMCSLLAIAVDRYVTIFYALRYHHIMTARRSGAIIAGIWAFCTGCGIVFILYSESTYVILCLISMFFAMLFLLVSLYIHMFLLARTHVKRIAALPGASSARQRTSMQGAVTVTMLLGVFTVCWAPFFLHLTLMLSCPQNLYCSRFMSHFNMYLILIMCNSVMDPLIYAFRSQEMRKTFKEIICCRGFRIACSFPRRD
T3 sequence (P35372 whole entry): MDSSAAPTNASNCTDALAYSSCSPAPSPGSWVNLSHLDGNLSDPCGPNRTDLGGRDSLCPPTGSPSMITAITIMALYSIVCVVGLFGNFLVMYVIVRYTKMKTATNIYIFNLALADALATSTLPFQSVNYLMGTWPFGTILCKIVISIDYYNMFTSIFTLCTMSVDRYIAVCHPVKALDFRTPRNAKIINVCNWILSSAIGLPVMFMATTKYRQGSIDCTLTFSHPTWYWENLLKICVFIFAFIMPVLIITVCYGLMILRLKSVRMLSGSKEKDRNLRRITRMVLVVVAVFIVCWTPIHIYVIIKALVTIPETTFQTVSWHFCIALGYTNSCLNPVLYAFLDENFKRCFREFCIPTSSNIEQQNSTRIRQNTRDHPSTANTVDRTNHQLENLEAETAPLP
T11 sequence (Q99705 whole entry): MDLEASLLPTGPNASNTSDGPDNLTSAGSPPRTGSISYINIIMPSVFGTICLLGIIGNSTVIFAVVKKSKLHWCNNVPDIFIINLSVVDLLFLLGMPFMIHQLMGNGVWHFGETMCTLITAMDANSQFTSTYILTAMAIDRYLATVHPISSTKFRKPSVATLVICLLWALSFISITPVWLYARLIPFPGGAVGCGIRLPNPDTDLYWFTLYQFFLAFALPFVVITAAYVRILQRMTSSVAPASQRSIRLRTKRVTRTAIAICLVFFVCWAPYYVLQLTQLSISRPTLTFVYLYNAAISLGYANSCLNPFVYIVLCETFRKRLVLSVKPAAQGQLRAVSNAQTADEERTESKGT
T10 sequence (P41146 whole entry): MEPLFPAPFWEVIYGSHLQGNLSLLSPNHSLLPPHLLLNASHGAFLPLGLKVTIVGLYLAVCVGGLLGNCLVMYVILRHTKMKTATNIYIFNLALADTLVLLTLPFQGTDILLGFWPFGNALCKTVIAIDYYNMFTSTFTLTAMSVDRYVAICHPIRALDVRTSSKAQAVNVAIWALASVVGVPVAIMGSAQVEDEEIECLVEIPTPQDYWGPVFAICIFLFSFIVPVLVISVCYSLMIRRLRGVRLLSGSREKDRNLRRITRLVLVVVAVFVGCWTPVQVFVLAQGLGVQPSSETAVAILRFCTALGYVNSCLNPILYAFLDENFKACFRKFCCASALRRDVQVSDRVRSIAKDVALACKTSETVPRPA

SMILES | A1 radioligand binding, percentage inhibition [1] | A2 radioligand binding, percentage inhibition [2] | A7 radioligand binding, percentage inhibition [3] | A8 radioligand binding, percentage inhibition [4] | A11 radioligand binding, percentage inhibition [5] | A3 radioligand binding, percentage inhibition [6] | A9 radioligand binding, percentage inhibition [7] | A5 radioligand binding, percentage inhibition [8] | A4 radioligand binding, percentage inhibition [9] | A10 radioligand binding, percentage inhibition [10] | A6 radioligand binding, percentage inhibition [11] | A1: inhibition of radioligand binding, human δ-opioid (DOP) [1] | A2: inhibition of radioligand binding, human κ-opioid (KOP) [2] | A7: inhibition of radioligand binding, human μ-opioid (MOP) [3] | A8: inhibition of radioligand binding, human neurokinin (NK1) [4] | A11: inhibition of radioligand binding, mouse urotensin (mUR2) [5] | A3: inhibition of radioligand binding, human melanocortin (MC3) [6] | A9: inhibition of radioligand binding, human neuropeptide Y (NPY-Y1) [7] | A5: inhibition of radioligand binding, human melanocortin (MC5) [8] | A4: inhibition of radioligand binding, human melanocortin (MC4) [9] | other results
CO[C@H]1[C@H](O)[C@@H](COCc2ccc(-c3ccccc3)cc2)OC(OCc2ccc(Cl)cc2)[C@@H]1NC(=O)CCCNC(=N)N (stereo partly drawn) [compound 96] | − (“−” indicates less than 50% inhibition at 10 μM) | + (“+” indicates greater than 50% inhibition at 10 μM) | − (“−” indicates less than 50% inhibition at 10 μM) | + (“+” indicates greater than 50% inhibition at 10 μM) | − (“−” indicates less than 50% inhibition at 10 μM) | + (“+” indicates greater than 50% inhibition at 10 μM) | + (“+” indicates greater than 50% inhibition at 10 μM) | + (“+” indicates greater than 50% inhibition at 10 μM) | + (“+” indicates greater than 50% inhibition at 10 μM) | + (“+” indicates greater than 50% inhibition at 10 μM) | + (“+” indicates greater than 50% inhibition at 10 μM) |  |  |  |  |  |  |  |  |  | 
COCC1OC(OCc2ccc(Cl)cc2)C(NC(=O)CCCN)C(OCc2ccccc2)C1O (stereo not drawn) [compound 197] |  |  |  |  |  |  |  |  |  |  |  |  |  |  |  |  |  |  |  |  | A1: inhibition of radioligand binding ([1]; FlashPlate): − (“−” indicates less than 50% inhibition at 10 μM); A2: inhibition of radioligand binding ([2]; filtration): − (“−” indicates less than 50% inhibition at 10 μM); A7: inhibition of radioligand binding ([3]; FlashPlate): − (“−” indicates less than 50% inhibition at 10 μM); A8: inhibition of radioligand binding ([4]; filtration): + (“+” indicates greater than 50% inhibition at 10 μM); A11: inhibition of radioligand binding ([5]; FlashPlate): − (“−” indicates less than 50% inhibition at 10 μM); A3: inhibition of radioligand binding ([6]; FlashPlate): − (“−” indicates less than 50% inhibition at 10 μM); A9: inhibition of radioligand binding ([7]; FlashPlate): − (“−” indicates less than 50% inhibition at 10 μM); A5: inhibition of radioligand binding ([8]; FlashPlate): − (“−” indicates less than 50% inhibition at 10 μM); A4: inhibition of radioligand binding ([9]; FlashPlate): − (“−” indicates less than 50% inhibition at 10 μM); A10: inhibition of radioligand binding ([10]; FlashPlate): − (“−” indicates less than 50% inhibition at 10 μM); A6: inhibition of radioligand binding ([11]; [125I]-S36057, FlashPlate): − (“−” indicates less than 50% inhibition at 10 μM)
COCC1OC(OCc2ccccc2)C(NC(=O)CCN)C(OCc2ccc(-c3ccccc3)cc2)C1O (stereo not drawn) [compound 184] | − (“−” indicates less than 50% inhibition at 10 μM) | − (“−” indicates less than 50% inhibition at 10 μM) | − (“−” indicates less than 50% inhibition at 10 μM) | + (“+” indicates greater than 50% inhibition at 10 μM) | − (“−” indicates less than 50% inhibition at 10 μM) | − (“−” indicates less than 50% inhibition at 10 μM) | − (“−” indicates less than 50% inhibition at 10 μM) | + (“+” indicates greater than 50% inhibition at 10 μM) | − (“−” indicates less than 50% inhibition at 10 μM) | − (“−” indicates less than 50% inhibition at 10 μM) | − (“−” indicates less than 50% inhibition at 10 μM) |  |  |  |  |  |  |  |  |  | 
N=C(N)NCCC(=O)N[C@H]1C(OCc2ccc(Cl)cc2)O[C@H](COCc2ccccc2)[C@@H](O)[C@@H]1OCc1ccc2ccccc2c1 (stereo partly drawn) [compound 531] |  |  |  |  |  |  |  |  |  |  |  | − (“−” indicates less than 50% inhibition at 10 μM) | + (“+” indicates greater than 50% inhibition at 10 μM) | + (“+” indicates greater than 50% inhibition at 10 μM) | + (“+” indicates greater than 50% inhibition at 10 μM) | − (“−” indicates less than 50% inhibition at 10 μM) | + (“+” indicates greater than 50% inhibition at 10 μM) | − (“−” indicates less than 50% inhibition at 10 μM) | + (“+” indicates greater than 50% inhibition at 10 μM) | + (“+” indicates greater than 50% inhibition at 10 μM) | A10: inhibition of radioligand binding, human opioid (ORL1) [10]: + (“+” indicates greater than 50% inhibition at 10 μM); A6: inhibition of radioligand binding, human melanin-concentrating hormone (MCH1) [11]: + (“+” indicates greater than 50% inhibition at 10 μM)
COCC1OC(OCc2ccccc2)C(NC(=O)CNC(=N)N)C(OCc2ccccc2)C1O (stereo not drawn) [compound 171] | − (“−” indicates less than 50% inhibition at 10 μM) | − (“−” indicates less than 50% inhibition at 10 μM) | − (“−” indicates less than 50% inhibition at 10 μM) | + (“+” indicates greater than 50% inhibition at 10 μM) | − (“−” indicates less than 50% inhibition at 10 μM) | − (“−” indicates less than 50% inhibition at 10 μM) | − (“−” indicates less than 50% inhibition at 10 μM) | + (“+” indicates greater than 50% inhibition at 10 μM) | − (“−” indicates less than 50% inhibition at 10 μM) | − (“−” indicates less than 50% inhibition at 10 μM) | − (“−” indicates less than 50% inhibition at 10 μM) |  |  |  |  |  |  |  |  |  | 
CSC1OC(COCc2cccc(N)c2)C(O)C(OCc2ccc(Cl)cc2)C1NC(=O)c1c[nH]c2ccccc12 (stereo not drawn) [compound 334] |  |  |  |  |  |  |  |  |  |  |  | − (“−” indicates less than 50% inhibition at 10 μM) | − (“−” indicates less than 50% inhibition at 10 μM) | − (“−” indicates less than 50% inhibition at 10 μM) | + (“+” indicates greater than 50% inhibition at 10 μM) | − (“−” indicates less than 50% inhibition at 10 μM) | − (“−” indicates less than 50% inhibition at 10 μM) | − (“−” indicates less than 50% inhibition at 10 μM) | − (“−” indicates less than 50% inhibition at 10 μM) | − (“−” indicates less than 50% inhibition at 10 μM) | A10: inhibition of radioligand binding, human opioid (ORL1) [10]: − (“−” indicates less than 50% inhibition at 10 μM); A6: inhibition of radioligand binding, human melanin-concentrating hormone (MCH1) [11]: − (“−” indicates less than 50% inhibition at 10 μM)

Source: patent US20080009418A1, “Selective Inhibitors” (Alchemia LTD., priority 2004, published 2008)
